Source: patent US10744214B2, “Method of diagnosing and/or monitoring therapy of atherosclerosis” (STC.UNM, priority 2015, dated 2020)
Entries after “also recorded” stand apart in the source; their conditions may differ.

How the values were obtained:
neutrophils and PBMCs = experiment: Radiolabeled DANBIRT uptake in isolated blood components after ozone exposure; type: cell-based, rats; conditions: rat blood collected 24 hours post-exposure, 1 hour incubation
Method: • 6 week old ApoE KO C57 black male • SPECT imaging 3 hrs and 24 hrs post tail vein Injection of ˜700 uCi (˜25.9 Mbq) of ^111In-DANBIRT • Autoradiography was performed 24 hrs PI of ^111In-DANBIRT after the last imaging time point, • We focused on 3 areas for our region of interest analysis: Aortic arch, carotids and thymus: normalized to muscle. • Whole blood incubation with ^68Ga-DANBIRT and subsequent neutrophil and PBMC isolation were performed from rat blood from animals exposed to filtered air and ozone. • 2 groups: Filtered air (n=3) and ozone (n=3) • Whole blood was collected 24 hrs post exposure • Whole Blood Separation was performed after incubation with ^68Ga-DANBIRT, obtaining 4 samples: serum, red blood cells, neutrophils and peripheral blood mononucleated cells. Staining was performed for specific morphology interpretation and smear cell line purity assessment. Results
Rats were exposed to either filtered air (FA) or ozone (1.0 ppm) for 4 hours using an OREC silent are discharge ozone generator (Osmonics, Phoenix, Ariz.); ozone concentrations were continuously monitored over the course of 4 hours. Exposures took place in a chamber without bedding to minimize ozone scrubbing and to ensure consistent nasal exposures. Whole blood was collected 24 hours post-exposure. Histopaque two-step gradient (Sigma Aldrich, 10771) neutrophil isolation protocol was performed following manufacturer's methods; modified protocol was included for PBMC isolation. Hetastarch at 5% (B. Braun, L6511) was added to whole blood before running isolation protocols. Cell samples were washed and suspended in 1% Gelatin in PBS at a pH of 7.2. Final volumes of neutrophil and PBMC samples were increased to 1 mL. Final samples were identified as serum, RBC, neutrophils and PBMCs and incubated for 1 hour with [^68Ga] Ga-DANBIRT (specific activity of 625 mCi/pM). […] Cell morphology, differentials and sample purity were assessed using a light microscope at 40× objective (Olympus BX51).

[1] = In vitro stability of radiolabeled DANBIRT in fetal bovine serum and 0.9% saline; type: in vitro ADME; conditions: FBS and 0.9% saline, 4 hours
Method: Incubation of [^68Ga] Ga-DANBIRT with Fetal Bovine Serum (FBS) (Atlanta Biologicals, S11150) and 0.9% saline solution was performed in vitro stability analysis. Triplicate samples were drawn from radiolabeled stock and kept incubated at 37° C. until time of analysis. ITLC was performed once at each time point and HPLC assessment was performed in triplicates at baseline, 5, 10, 30, 60, 120 and 240 minutes of incubation. The mean incorporation yield and radiochemical purity were calculated from sample results. Following methods by Poria et al methods were modified for use in a Ultra-Performance Liquid Chromatography (UPLC) using an Acquity UPLC BEH C-18 1.7 μm column (2.1×50 mm) (Waters Corporation, 186002350). UPLC gradient with flow rate is described in FIG. 14.

[2] = Ex vivo biodistribution of [111In] In-DANBIRT post tail vein injection in ApoE-/- mice
Method: • Animals were imaged for ˜75 minutes 3 hrs post tail vein injection of ˜700 uCi (˜25.9 Mbq) of ^111In-DANBIRT • Atorvastatin was administered in the drinking water and PPAR-Delta agonist (GW1516) was incorporated into food pellets by diet manufacturing company. • Organ and serum collection for bio distribution and lipid levels and sub particles size analysis was performed after last imaging time point
Upon completion of 8 weeks on normal or HFD, mice were euthanized 3 hours post-injection of 700 μCi of [^111In] In-DANBIRT via tail vein; organs were harvested for weight assessment and [^111In] In-DANBIRT uptake using an Automatic Wizard 2 Gamma counter (Perkin Elmer). Organs collected were: tail, whole blood, aorta (from aortic arch to thoracic aorta), carotids (front aortic arch to bifurcation), heart, liver, muscle and adipose tissue. Whole blood was collected with direct cardiac puncture of right ventricle using a 24-gauge needle of right ventricle with a heparinized syringe and centrifuged for 15 minutes at 1000 g at 4° C. Serum, erythrocytes (RBC) and leukocytes (WBC) containing isolated samples were collected and measured for [^111In] In-DANBIRT uptake using a gamma counter. Uptake was decay-corrected and percent-injected activity per gram (% IA/gr) was determined for each mouse.

LFA-1 receptor [3] = target: T1, LFA-1 receptor (Rattus norvegicus, UniProt F1LP44); experiment: Radioisotopic dilution / competitive leukocyte binding assay; conditions: compared to neutrophil sample, p<0.05
T1 construct: endogenous in cells; host or cells: neutrophils and PBMCs from whole blood of male Sprague Dawley rats
T1 sequence (F1LP44 24-1161): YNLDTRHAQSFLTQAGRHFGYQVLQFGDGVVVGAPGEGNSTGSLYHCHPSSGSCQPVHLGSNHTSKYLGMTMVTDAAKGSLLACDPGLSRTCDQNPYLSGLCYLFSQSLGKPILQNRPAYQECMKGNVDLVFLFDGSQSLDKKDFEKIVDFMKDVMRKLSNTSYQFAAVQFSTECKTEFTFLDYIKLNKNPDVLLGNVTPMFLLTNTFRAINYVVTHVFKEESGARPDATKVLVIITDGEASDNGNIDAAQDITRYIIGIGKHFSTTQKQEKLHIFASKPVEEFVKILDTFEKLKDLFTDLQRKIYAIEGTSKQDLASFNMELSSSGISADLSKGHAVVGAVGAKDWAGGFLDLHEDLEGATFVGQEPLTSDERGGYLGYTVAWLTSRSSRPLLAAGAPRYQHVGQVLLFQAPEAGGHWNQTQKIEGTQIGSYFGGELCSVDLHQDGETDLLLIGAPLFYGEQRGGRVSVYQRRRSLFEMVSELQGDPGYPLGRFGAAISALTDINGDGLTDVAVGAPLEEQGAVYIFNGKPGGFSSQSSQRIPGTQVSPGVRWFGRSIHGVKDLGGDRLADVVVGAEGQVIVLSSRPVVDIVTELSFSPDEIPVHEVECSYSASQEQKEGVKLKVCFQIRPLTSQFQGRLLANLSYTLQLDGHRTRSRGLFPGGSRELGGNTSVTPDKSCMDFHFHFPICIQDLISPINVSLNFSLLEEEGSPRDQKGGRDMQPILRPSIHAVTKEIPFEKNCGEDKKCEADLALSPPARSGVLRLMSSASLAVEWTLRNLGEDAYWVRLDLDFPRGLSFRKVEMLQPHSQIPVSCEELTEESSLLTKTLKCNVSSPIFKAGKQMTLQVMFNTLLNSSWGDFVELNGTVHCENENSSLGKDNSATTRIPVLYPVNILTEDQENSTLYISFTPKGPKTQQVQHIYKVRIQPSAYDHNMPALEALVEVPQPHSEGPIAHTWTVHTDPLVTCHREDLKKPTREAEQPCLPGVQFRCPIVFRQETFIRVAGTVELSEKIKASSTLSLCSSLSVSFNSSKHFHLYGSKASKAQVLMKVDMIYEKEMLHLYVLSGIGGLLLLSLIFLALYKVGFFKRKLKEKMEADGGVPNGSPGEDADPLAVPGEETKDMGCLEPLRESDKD
Method: (§1) Radioisotopic dilution methods were performed with log-fold serial dilutions at concentrations of 1:1, 1:10, 1:100 and 1:1000 radiolabeled DANBIRT. Rat whole blood was collected and incubated for 10 minutes with [^111In] In-DANBIRT. Leukocyte isolation was performed for neutrophil and PBMC separations post-incubation with radiolabeled DANBIRT (specific activity 625 mCi/pM). Cytospin 2 (Shandon 2,59900002) with double-funnel and white filter (Simport, 930941126) was used for clustered cell differentials identification methods. Cytospin samples were spread in Superfrost Plus slides (VWR, 48311-703) and fixed with […]. Wright-Giemsa horizontal staining protocol was performed according to manufacturer's package insert instructions (Sigma Aldrich, SLBN4704V). Cell morphology, differentials and sample purity were assessed using a light microscope at 40× objective (Olympus BX51).

LFA-1 receptor [4] = experiment: as above; set-up: species or system Rat; conditions: serum, RBC and PBMC samples
Method: as §1

LFA-1 [5] = target: T2, LFA-1 (Mus musculus, UniProt P24063); experiment: 3 hr [111In] In-DANBIRT SPECT/CT imaging of ApoE-/- mice; type: in vivo; conditions: HFD fed mice, 3 hr post injection, baseline, 4th and 8th week, normalized to muscle
T2 construct: presence of inflammatory LFA-1 in immune and cardiovascular tissues; from tissue; host or cells: living or euthanized male ApoE-/- C57BL/6 mice: heart, aortic arch, descending aorta, carotids, thymus
Method: (§2) Methods: 6 week ApoE […] mice were fed either normal or high fat chow (n=8 per group) for 8 weeks to induce vascular atherosclerotic lesions. SPECT/CT imaging was performed 3-hrs post injection of ˜700 uCi of ^111In-DANBIRT at baseline, 4 weeks and 8 weeks. Whole body Autoradiography was performed 24-hrs post injection after 8-week time point. Image processing and analysis was performed by region of interest (ROI) determination in relationship to voxel and volume, uptake quantification was normalized to muscle uptake. Blood partition assays were conducted to ascertain specific binding components. […]
Animals were imaged at […] following 700 μCi via tail vein injection of [^111In] […] Regions of Interests (ROI) were determined and drawn using the best quality image phantom from reconstructed CT (Table 3) to determine muscle, adipose, heart, aortic arch and descending aorta organs using VivoQuant 2.00 (inviCRO, Boston, Mass.). […] Concentration and sum per volume normalized to muscle was determined to identify accurate measurements and eliminate ROI signal interference from adjacent tissues. […]

LFA-1 [6] = target: T2, LFA-1; experiment: 24 hr [111In] In-DANBIRT 3D autoradiography of ApoE-/- mice; type: in vivo
Method: as §2
Mice were euthanized by CO2 method after 8 weeks of dietary assessment. […] Autoradiography and white light files were compiled and analyzed using VivoQuant 2.00 (inviCRO, Boston, Mass.). Determined ROI were drawn using the best quality image phantom from reconstructed CT (FIG. 14, Table 3) for the thymus, muscle, carotids and aortic arch. […]

[7] = 8 weeks of diet, 3 hours post-injection, p<0.05

T2 sequence (P24063 24-1162): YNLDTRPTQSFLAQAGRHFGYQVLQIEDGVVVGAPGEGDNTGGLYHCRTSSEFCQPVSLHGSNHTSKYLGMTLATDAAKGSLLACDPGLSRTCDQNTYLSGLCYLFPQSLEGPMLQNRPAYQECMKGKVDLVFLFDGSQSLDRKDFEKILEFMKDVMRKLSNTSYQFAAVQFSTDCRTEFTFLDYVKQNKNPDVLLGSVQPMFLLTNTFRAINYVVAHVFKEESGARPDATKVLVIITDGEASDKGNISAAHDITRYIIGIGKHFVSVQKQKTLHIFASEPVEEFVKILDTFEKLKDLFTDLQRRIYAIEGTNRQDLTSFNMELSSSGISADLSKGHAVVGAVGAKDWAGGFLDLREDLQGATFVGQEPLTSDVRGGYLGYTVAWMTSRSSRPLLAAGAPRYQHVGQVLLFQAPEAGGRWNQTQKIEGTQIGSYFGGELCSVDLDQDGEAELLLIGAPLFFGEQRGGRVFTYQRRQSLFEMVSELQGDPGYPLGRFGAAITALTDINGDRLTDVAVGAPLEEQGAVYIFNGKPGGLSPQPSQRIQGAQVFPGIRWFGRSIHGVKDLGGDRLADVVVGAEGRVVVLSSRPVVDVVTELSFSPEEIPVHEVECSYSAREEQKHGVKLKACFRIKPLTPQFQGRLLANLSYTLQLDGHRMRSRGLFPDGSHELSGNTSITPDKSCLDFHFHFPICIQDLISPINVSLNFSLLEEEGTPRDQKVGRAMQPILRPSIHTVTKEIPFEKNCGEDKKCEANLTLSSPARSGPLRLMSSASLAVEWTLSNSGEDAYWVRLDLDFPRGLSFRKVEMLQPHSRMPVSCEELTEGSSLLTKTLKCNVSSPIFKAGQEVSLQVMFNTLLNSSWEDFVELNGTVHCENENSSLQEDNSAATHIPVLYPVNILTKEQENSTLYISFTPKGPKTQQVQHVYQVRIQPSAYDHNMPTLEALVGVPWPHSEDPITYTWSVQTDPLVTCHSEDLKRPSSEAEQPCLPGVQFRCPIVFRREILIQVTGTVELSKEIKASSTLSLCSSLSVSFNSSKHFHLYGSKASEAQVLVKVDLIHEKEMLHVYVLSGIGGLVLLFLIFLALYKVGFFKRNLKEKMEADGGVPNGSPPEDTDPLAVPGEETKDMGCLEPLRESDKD
T2 sequence (P11835 24-771 partner): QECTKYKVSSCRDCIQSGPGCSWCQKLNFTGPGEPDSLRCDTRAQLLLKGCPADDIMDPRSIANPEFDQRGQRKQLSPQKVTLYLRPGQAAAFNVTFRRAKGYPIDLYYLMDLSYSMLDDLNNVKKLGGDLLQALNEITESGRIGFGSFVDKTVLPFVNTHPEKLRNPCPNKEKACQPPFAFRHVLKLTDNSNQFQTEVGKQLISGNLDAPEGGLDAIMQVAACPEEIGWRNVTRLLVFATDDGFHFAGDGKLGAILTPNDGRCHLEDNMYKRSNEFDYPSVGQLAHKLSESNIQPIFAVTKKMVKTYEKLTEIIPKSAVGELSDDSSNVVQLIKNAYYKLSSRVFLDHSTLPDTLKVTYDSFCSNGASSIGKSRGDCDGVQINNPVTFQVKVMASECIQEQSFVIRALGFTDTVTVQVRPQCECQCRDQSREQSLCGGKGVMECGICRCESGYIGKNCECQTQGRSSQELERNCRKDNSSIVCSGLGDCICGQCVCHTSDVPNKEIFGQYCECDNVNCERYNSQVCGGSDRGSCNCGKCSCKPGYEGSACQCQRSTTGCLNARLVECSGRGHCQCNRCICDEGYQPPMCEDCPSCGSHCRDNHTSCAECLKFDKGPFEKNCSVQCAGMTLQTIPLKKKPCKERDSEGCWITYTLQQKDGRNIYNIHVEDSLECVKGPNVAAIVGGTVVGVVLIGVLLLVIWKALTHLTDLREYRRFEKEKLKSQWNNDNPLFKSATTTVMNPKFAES

| Compound | uptake in PBMCs post-ozone exposure (neutrophils and PBMCs) | uptake in serum post-ozone exposure (neutrophils and PBMCs) | uptake in neutrophils post 4-hour ozone exposure vs filtered air (neutrophils and PBMCs; p=0.008) | stability on incubation [1] | uptake in RBC and WBC samples, HFD vs normal diet [2, 7] | uptake in cardiovascular tissues (heart, aorta, carotids), HFD vs normal diet [2, 7] | % IA/gr of tissue, HFD vs normal diet ([2]; 8 weeks of diet, p<0.05) | uptake in adipose tissue and muscle ([2]; 3 hours post-injection) | uptake in serum compared to other blood components ([2]; 3 hours post-injection of 700 μCi) | uptake in liver compared to other tissues ([2]; 3 hours post-injection of 700 μCi, regardless of dietary treatment) | organ bio distribution uptake in liver, serum, aorta and blood components ([2]; Example 2, 1st cohort) | saturation in PBMCs at different dilution concentrations (LFA-1 receptor [3]) | decrease of initial uptake after each log fold dilution concentration (LFA-1 receptor [4]) | uptake in heart, aortic arch and descending aorta ROI (SPECT/CT) (LFA-1 [5]) | uptake in heart, aortic arch and descending aorta ROI (SPECT/CT) (LFA-1 [5]; listed as 111In-DANBIRT) | uptake in carotids and thymus, concentration per volume normalized to muscle, HFD vs normal diet (LFA-1 [6]; 24 hr post injection after 8 weeks of diet) | uptake in the thymus (LFA-1 [6]; Example 1, autoradiography and SPECT/CT analysis) |
| --- | --- | --- | --- | --- | --- | --- | --- | --- | --- | --- | --- | --- | --- | --- | --- | --- | --- |
| C[C@]1(Cc2ccc(Br)cc2)C(=O)N(c2cc(Cl)cc(Cl)c2)C(=O)N1CCCCNC(=O)CN1CCN2CCN3CCN(CC1)CC(=O)[O][68Ga]([O]C(=O)C2)[O]C(=O)C3 [[^68Ga] Ga-DANBIRT] | decreased uptake; also recorded: decrease | decrease | increased uptake | – | – | – | – | – | – | – | – | – | – | – | – | – | – |
| C[C@]1(Cc2ccc(Br)cc2)C(=O)N(c2cc(Cl)cc(Cl)c2)C(=O)N1CCCCNC(=O)CN1CCN2CCN3CCN(CC1)CC(=O)[O][111In]([O]C(=O)C2)[O]C(=O)C3 [[^111In] In-DANBIRT] | – | – | – | maintained throughout 4 hours of incubation | increased uptake | higher uptake | increase | low uptake | high uptake | high uptake | significant uptake | did not evidence any saturation levels | 50% | longitudinal increased uptake; also recorded: Increased longitudinal uptake | longitudinal increase in uptake | increase; also recorded: Increased uptake | Increased uptake |
